Values of other authors, collected in publication PMC8878452, “A Tale of Toxin Promiscuity: The Versatile Pharmacological Effects of Hcr 1b-2 Sea Anemone Peptide on Voltage-Gated Ion Channels” (Marine Drugs, 2022).
Entries after “also recorded” stand apart in the source; their conditions may differ. Where two headings read alike, the source gives them in different places. Where no end group is shown, it is not given here.

Legend:
hERG = conditions: cited from earlier work
Excerpt: APETx1 are known to modulate hERG [21], Nav1.2–1.6, and Nav1.8 [20], while APETx2 modulates ASICs, Kv3.4, [22], and hERG [23], as well as Nav1.2, Nav1.6, and Nav1.8 [20]. APETx3 is known for interacting with Nav1.2–1.4, Nav1.6, DmNav1, BgNav1, and VdNav1 [20]. […] Previous studies have shown that F15, Y32, F33, and L34 seem to be key residues for the interaction between APETx1 and hERG, as they are located on the molecular surface of this peptide. Hcr 1b-2 shares the same residues in its sequence (Figure 1), which can explain the similar effect observed.

Nav1.6 = conditions: cited from earlier work
Excerpt: (§1) APETx1 are known to modulate hERG [21], Nav1.2–1.6, and Nav1.8 [20], while APETx2 modulates ASICs, Kv3.4, [22], and hERG [23], as well as Nav1.2, Nav1.6, and Nav1.8 [20]. APETx3 is known for interacting with Nav1.2–1.4, Nav1.6, DmNav1, BgNav1, and VdNav1 [20]. […] Like Hcr 1b-2, APETx1 inhibits the mammalian Nav1.2–1.6 and Nav1.8 isoforms, while APETx2 acts on Nav1.2, Nav1.6, and Nav1.8.

BgNav1 = conditions: cited from earlier work; for effect on insect channel BgNav: printed BgNav
Excerpt: as §1

Nav1.5 = conditions: cited from earlier work
Excerpt: as §1

Nav1.4 = conditions: cited from earlier work
Excerpt: as §1

Nav1.8 = conditions: cited from earlier work
Excerpt: as §1

Nav1.3 = conditions: cited from earlier work
Excerpt: as §1

Nav1.2 = conditions: cited from earlier work
Excerpt: as §1

Nav1.1 = conditions: cited from earlier work
Excerpt: (§2) APETx1 and APETx2 are well-known sea anemone peptides that are characterized as sodium channel modulators. Like Hcr 1b-2, APETx1 inhibits the mammalian Nav1.2–1.6 and Nav1.8 isoforms, while APETx2 acts on Nav1.2, Nav1.6, and Nav1.8.

Nav1.7 = conditions: cited from earlier work
Excerpt: as §2

ASIC = system: ASIC; design: method as in 2 sources, one per row (each row's own in cited_ref): ref 17 = [17]; PMID 29684594; doi:10.1016/j.peptides.2018.04.013; 17. Kalina R. Gladkikh I. Dmitrenok P. Chernikov O. Koshelev S. Kvetkina A. Kozlov S. Kozlovskaya E. Monastyrnaya M. New APETx-like peptides from sea anemone Heteractis crispa modulate ASIC1a channels ||| ref 22 = [22]; PMID 15044953; doi:10.1038/sj.emboj.7600177; 22. Diochot S. Baron A. Rash L.D. Deval E. Escoubas P. Scarzello S. Salinas M. Lazdunski M. A new sea anemone peptide, APETx2, inhibits ASIC3, a major acid-sensitive channel in sensory neurons EMBO J.; conditions: cited from earlier work
Kv3.4 = system: Kv3.4; design: method as in 2 sources, ref 22 = [22]; PMID 15044953; doi:10.1038/sj.emboj.7600177; 22. Diochot S. Baron A. Rash L.D. Deval E. Escoubas P. Scarzello S. Salinas M. Lazdunski M. A new sea anemone peptide, APETx2, inhibits ASIC3, a major acid-sensitive channel in sensory neurons EMBO J. ||| ref 33 = [33]; PMID 16177043; doi:10.1523/JNEUROSCI.2119-05.2005; 33. Yeung S.Y. Thompson D. Wang Z. Fedida D. Robertson B. Modulation of Kv3 subfamily potassium currents by the sea anemone toxin BDS: Significance for CNS and biophysical studies J. Neurosci. 2005 25; conditions: cited from earlier work
Nav channels = conditions: cited from earlier work
Excerpt: as §2

DmNav1 = conditions: cited from earlier work
Excerpt: (§3) APETx1 are known to modulate hERG [21], Nav1.2–1.6, and Nav1.8 [20], while APETx2 modulates ASICs, Kv3.4, [22], and hERG [23], as well as Nav1.2, Nav1.6, and Nav1.8 [20]. APETx3 is known for interacting with Nav1.2–1.4, Nav1.6, DmNav1, BgNav1, and VdNav1 [20].

VdNav1 = conditions: cited from earlier work
Excerpt: as §3

Kv1.4 = conditions: cited from earlier work
Excerpt: as §3

Kv1.5 = conditions: cited from earlier work
Excerpt: as §3

Kv1.3 = conditions: cited from earlier work
Excerpt: as §3

Kv2.1 = conditions: cited from earlier work
Excerpt: as §3

Kv10.1 = conditions: cited from earlier work
Kv3.2 = conditions: cited from earlier work
Excerpt: (§4) The only targets in which Hcr 1b-2 was not active were Kv3.1 and Kv10.1 (Figure 2 and Figure 3). Among sea anemone toxins, BDS-I, from Anemonia sulcata, is a well-characterized toxin capable of inhibiting isoforms from the Kv3 family, being active on Kv3.1, Kv3.2, and Kv3.4 [33].

TTX-sensitive channels = conditions: cited from earlier work
Excerpt: as §4

Kv3.1 = conditions: cited from earlier work
Excerpt: as §4

TTX-resistant isoforms = conditions: cited from earlier work
Excerpt: as §4

APETx1: APETx family peptide from Anthopleura elegantissima, UniProt P61541 (GTTCYCGKTIGIYWFGTKTCPSNRGYTGSCGYFLGICCYPVD; ends and bridges not checked; cysteine pairing not given here; UniProt P61541 1-42, looked up)
effect on hERG (hERG): modulate
effect on Nav1.6 (Nav1.6): modulate; also recorded: inhibits
effect on insect channel BgNav (BgNav1): unaffected
effect on Nav1.5 (Nav1.5): modulate; also recorded: inhibits
effect on Nav1.4 (Nav1.4): modulate; also recorded: inhibits
effect on Nav1.8 (Nav1.8): modulate; also recorded: inhibits
effect on Nav1.3 (Nav1.3): modulate; also recorded: inhibits
effect on Nav1.2 (Nav1.2): modulate; also recorded: inhibits
effect on Nav1.1 (Nav1.1): unaffected
effect on Nav1.7 (Nav1.7): unaffected

APETx2: APETx family peptide from Anthopleura elegantissima, UniProt P61542 (GTACSCGNSKGIYWFYRPSCPTDRGYTGSCRYFLGTCCTPAD; ends and bridges not checked; cysteine pairing not given here; UniProt P61542 1-42, looked up)
effect on hERG (hERG): modulates
effect on ASICs (ASIC): modulates
effect on Nav1.6 (Nav1.6): modulates; also recorded: acts on
effect on insect channel BgNav (BgNav1): unaffected
effect on Nav1.8 (Nav1.8): modulates; also recorded: acts on
effect on Nav1.2 (Nav1.2): modulates; also recorded: acts on
effect on Kv3.4 (Kv3.4): modulates
effect on Nav1.1 (Nav1.1): unaffected
modulation of voltage-dependence of Nav channels (Nav channels): did not modulate the voltage-dependence
effect on Nav1.7 (Nav1.7): unaffected

APETx3: APETx family peptide from Anthopleura elegantissima, UniProt B3EWF9 (GTPCYCGKTIGIYWFGTKTCPSNRGYTGSCGYFLGICCYPVD; ends and bridges not checked; cysteine pairing not given here; UniProt B3EWF9 1-42, looked up)
effect on DmNav1 (DmNav1): interacting
effect on VdNav1 (VdNav1): interacting
effect on hERG (hERG; Thr3Pro substitution): abolishes the activity
effect on Nav1.6 (Nav1.6): interacting
effect on BgNav1 (BgNav1): interacting
effect on Nav1.4 (Nav1.4): interacting
effect on Nav1.3 (Nav1.3): interacting
effect on Nav1.2 (Nav1.2): interacting

APETx4: APETx family peptide from Anthopleura elegantissima, UniProt C0HL40 (GTTCYCGKTIGIYWFGKYSCPTNRGYTGSCPYFLGICCYPVD; ends and bridges not checked; cysteine pairing not given here; UniProt C0HL40 1-42, looked up)
effect on Kv1.4 (Kv1.4): modulates
effect on Kv1.5 (Kv1.5): modulates
effect on Kv1.3 (Kv1.3): modulates
effect on Kv2.1 (Kv2.1): modulates
effect on Nav1.6 (Nav1.6): modulates
effect on Nav1.5 (Nav1.5): modulates
effect on Nav1.4 (Nav1.4): modulates
effect on Kv10.1 (Kv10.1): notorious Kv10.1 inhibitor; also recorded: non-selective Kv10.1 inhibitor

BDS-I: toxin from Anemonia sulcata, UniProt P11494 (AAPCFCSGKPGRGDLWILRGTCPGGYGYTSNCYKWPNICCYPH; UniProt P11494 1-43, looked up)
effect on Kv3.4 (Kv3.4): active
effect on Kv3.2 (Kv3.2): active
effect on TTX-sensitive channels (TTX-sensitive channels): strongly enhances
effect on Kv3.1 (Kv3.1): active
effect on TTX-resistant isoforms (TTX-resistant isoforms): weakly affected
